Measurements from PubChem BioAssay (NCI).
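Following 48 hours of exposure in 96-well plates, responses at five concentrations were used to interpolate endpoints linearly. The concentration for full growth arrest is given as TGI.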

Experiments:
Assay in all cases: inhibition of tumour cell growth, NCI panel, 48 h
KM12 colon = system: KM12 colon
SF-295 CNS = system: SF-295 CNS
HCT-116 colon = system: HCT-116 colon
EKVX NSCLC = system: EKVX NSCLC
MOLT-4 leukemia = system: MOLT-4 leukemia
HOP-92 NSCLC = system: HOP-92 NSCLC
MDA-MB-435 = system: MDA-MB-435
IGROV1 ovarian = system: IGROV1 ovarian
MCF7 breast = system: MCF7 breast
UACC-257 melanoma = system: UACC-257 melanoma
NCI-H460 lung = system: NCI-H460 lung
T-47D breast = system: T-47D breast
SF-539 CNS = system: SF-539 CNS
SF-268 CNS = system: SF-268 CNS
786-0 renal = system: 786-0 renal
HL-60(TB) leukemia = system: HL-60(TB) leukemia
SK-MEL-5 melanoma = system: SK-MEL-5 melanoma
RXF 393 renal = system: RXF 393 renal
HT29 colon = system: HT29 colon
NCI-H23 lung = system: NCI-H23 lung
SN12C renal = system: SN12C renal
SNB-19 CNS = system: SNB-19 CNS
RPMI-8226 leukemia = system: RPMI-8226 leukemia
PC-3 prostate = system: PC-3 prostate
OVCAR-4 ovarian = system: OVCAR-4 ovarian
M14 melanoma = system: M14 melanoma
COLO 205 colon = system: COLO 205 colon
MDA-N = system: MDA-N
SR leukemia = system: SR leukemia
BT-549 breast = system: BT-549 breast
UO-31 renal = system: UO-31 renal
SK-MEL-28 melanoma = system: SK-MEL-28 melanoma
CAKI-1 renal = system: CAKI-1 renal
LOX IMVI melanoma = system: LOX IMVI melanoma
DU-145 prostate = system: DU-145 prostate
ACHN renal = system: ACHN renal
SK-MEL-2 melanoma = system: SK-MEL-2 melanoma
SK-OV-3 ovarian = system: SK-OV-3 ovarian
U251 CNS = system: U251 CNS
NCI-H522 lung = system: NCI-H522 lung
MALME-3M melanoma = system: MALME-3M melanoma
NCI-H226 lung = system: NCI-H226 lung
HCT-15 colon = system: HCT-15 colon
CCRF-CEM leukemia = system: CCRF-CEM leukemia
HS 578T breast = system: HS 578T breast
MDA-MB-231 breast = system: MDA-MB-231 breast
OVCAR-3 ovarian = system: OVCAR-3 ovarian
TK-10 renal = system: TK-10 renal
SW-620 colon = system: SW-620 colon
HOP-62 NSCLC = system: HOP-62 NSCLC
UACC-62 melanoma = system: UACC-62 melanoma
SNB-75 CNS = system: SNB-75 CNS
HCC-2998 colon = system: HCC-2998 colon
OVCAR-8 ovarian = system: OVCAR-8 ovarian
OVCAR-5 ovarian = system: OVCAR-5 ovarian
NCI/ADR-RES ovarian = system: NCI/ADR-RES ovarian
A549 NSCLC = system: A549 NSCLC

Measured: TGI

N#CC(NCCc1ccccc1)c1ccccc1 (configuration not stated)
> 100 µM: all assays above
